Data: US20150197492A1, “NOVEL INDENO[1,2-c]QUINOLIN-11-ONE DERIVATIVES, PREPARATION METHOD AND APPLICATION THEREOF” (National Defense Medical Center, priority 2014, published 2015)

Key:
Type in all cases: cell-based
human PC-3 cells = assay: Sulforhodamine B (SRB) assay, cytotoxicity against PC-3 cells; settings: SRB assay, PC-3 cells
How it was run: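 PC-3 cells in 5% FBS were fixed with 10% TCA after 24 h as T0, then treated with compound for 48 h, fixed, stained with 0.4% SRB in 1% acetic acid and solubilized in 10 mmol/L Trizma base. Absorbance was read at 515 nm. GI% = 100−[(Tx−T0)/(C−T0)]×100, and IC50 is the concentration halving total protein.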

[1] = tested on: 55 to 60 cancer cell lines; settings: 10 μM
CCRF-CEM = assay: cells
HL-60 (TB) = assay: cells
SR = assay: cells
A549/ATCC = assay: cells
HOP-62 = assay: cells
NCI-H23 = assay: cells
NCI-H460 = assay: cells
NCI-H522 = assay: cells
SW-620 = assay: cells
SF-295 = assay: cells
SNB-19 = assay: cells
U251 = assay: cells; settings: CNS Cancer U251
MDA-MB-435 = assay: cells
SK-MEL-28 = assay: cells
SK-MEL-5 = assay: cells
UACC-257 = assay: cells
IGROV1 = assay: cells
OVCAR-4 = assay: cells
SK-OV-3 = assay: cells
786-0 = assay: cells
ACHN = assay: cells
CAKI-1 = assay: cells
TK-10 = assay: cells; settings: TK-10 (Renal Cancer), 10 μM, 48 hours
DU-145 = assay: cells
MCF7 = assay: cells
MDA-MB-231/ATCC = assay: cells
BT-549 = assay: cells
[2] = Homo sapiens, Non-Small Cell Lung Cancer A549/ATCC
[3] = Homo sapiens, Non-Small Cell Lung Cancer HOP-62
[4] = Homo sapiens, Non-Small Cell Lung Cancer NCI-H23
[5] = Homo sapiens, Colon Cancer SW-620
[6] = Homo sapiens, CNS Cancer SF-295
[7] = Homo sapiens, CNS Cancer SNB-19
[8] = Homo sapiens, Breast Cancer MDA-MB-231/ATCC

O=C1c2cc(Cl)ccc2-c2c(N3CCNCC3)nc3ccccc3c21 [SJ-10, 9-Chloro-6-(piperazin-1-yl)-11H-indeno[1,2-c]quinolin-11-one]
Toxicity (%) (human PC-3 cells): 47.2% | GI % (10 μM) (human PC-3 cells; 10 μM): 100% | inhibition effect in different cancer cell lines (summary of the NCI data, in words) ([1]; 48 hours): preferable inhibition effects in leukemia and colon cancer cells | Mean (mean growth percentage of the tested cancer cell lines) ([1]; 48 hours, all tested cell lines): −14.37% | cytotoxicity in the first stage (in words) ([1]; basis for selection for the five-dose test): potential cytotoxicity | growth percentage (CCRF-CEM; CCRF-CEM (Leukemia), 10 μM, 48 hours): -35.45% | GI50 (CCRF-CEM; Homo sapiens, Leukemia CCRF-CEM): 6.32 µM | CC50 (CCRF-CEM; Homo sapiens, Leukemia CCRF-CEM, read-out: LC50 (the source's name)): > 100 µM | TGI (CCRF-CEM; Leukemia CCRF-CEM): >100 µM | growth percentage (HL-60 (TB); HL-60 (TB) (Leukemia), 10 μM, 48 hours): -38.36% | GI50 (HL-60 (TB); Homo sapiens, Leukemia HL-60(TB)): 36.9 µM | CC50 (HL-60 (TB); Homo sapiens, Leukemia HL-60(TB), read-out: LC50 (the source's name)): > 100 µM | TGI (HL-60 (TB); Leukemia HL-60(TB)): >100 µM | GI50 (SR; Homo sapiens, Leukemia SR): 3.09 µM | LC50 (50% lethal concentration) (SR; Homo sapiens, Leukemia SR): > 100 µM | TGI (SR; Leukemia SR): >100 µM | growth percentage (SR; SR (Leukemia), 10 μM, 48 hours): -55.19% | growth percentage (A549/ATCC; A549/ATCC (Non-Small Cell Lung Cancer), 10 μM, 48 hours): 18.70% | GI50 (A549/ATCC; [2]): 4.87 µM | LC50 (50% lethal concentration) (A549/ATCC; [2]): > 100 µM | TGI (A549/ATCC; Non-Small Cell Lung Cancer A549/ATCC): >100 µM | growth percentage (HOP-62; HOP-62 (Non-Small Cell Lung Cancer), 10 μM, 48 hours): -61.80% | GI50 (HOP-62; [3]): 12.3 µM | LC50 (50% lethal concentration) (HOP-62; [3]): > 100 µM | TGI (HOP-62; Non-Small Cell Lung Cancer HOP-62): >100 µM | GI50 (NCI-H23; [4]): 6.65 µM | LC50 (NCI-H23; [4]): > 100 µM | growth percentage (NCI-H23; NCI-H23 (Non-Small Cell Lung Cancer), 10 μM, 48 hours): 49.19% | TGI (NCI-H23; Non-Small Cell Lung Cancer NCI-H23): >100 µM | GI50 (NCI-H460; Homo sapiens, Non-Small Cell Lung Cancer NCI-460): 4.15 µM | CC50 (NCI-H460; Homo sapiens, Non-Small Cell Lung Cancer NCI-460, read-out: LC50 (the source's name)): > 100 µM | growth percentage (NCI-H460; NCI-H460 (Non-Small Cell Lung Cancer), 10 μM, 48 hours): -66.36% | TGI (NCI-H460; Non-Small Cell Lung Cancer NCI-460): >100 µM | GI50 (NCI-H522; Homo sapiens, Non-Small Cell Lung Cancer NCI-H522): 3.98 µM | CC50 (NCI-H522; Homo sapiens, Non-Small Cell Lung Cancer NCI-H522, read-out: LC50 (the source's name)): > 100 µM | growth percentage (NCI-H522; NCI-H522 (Non-Small Cell Lung Cancer), 10 μM, 48 hours): 18.08% | TGI (NCI-H522; Non-Small Cell Lung Cancer NCI-H522): >100 µM | TGI (SW-620; Colon Cancer SW-620): >100 µM | GI50 (SW-620; [5]): 5.14 µM | LC50 (concentration killing 50% of cells) (SW-620; [5]): > 100 µM | growth percentage (SW-620; SW-620 (Colon Cancer), 10 μM, 48 hours): -73.67% | TGI (SF-295; CNS Cancer SF-295): >100 µM | GI50 (SF-295; [6]): 7.79 µM | LC50 (concentration killing 50% of cells) (SF-295; [6]): > 100 µM | growth percentage (SF-295; SF-295 (CNS Cancer), 10 μM, 48 hours): 23.75% | TGI (SNB-19; CNS Cancer SNB-19): >100 µM | GI50 (SNB-19; [7]): 8.27 µM | LC50 (SNB-19; [7]): > 100 µM | growth percentage (SNB-19; SNB-19 (CNS Cancer), 10 μM, 48 hours): 67.25% | TGI (U251): >100 µM | GI50 (U251; Homo sapiens, U-251): 4.82 µM | LC50 (concentration killing 50% of cells) (U251; Homo sapiens, U-251): > 100 µM | GI50 (MDA-MB-435; Homo sapiens, Melanoma MDA-MB-435): 7.01 µM | CC50 (MDA-MB-435; Homo sapiens, Melanoma MDA-MB-435, read-out: LC50 (the source's name)): > 100 µM | growth percentage (MDA-MB-435; MDA-MB-435 (Melanoma), 10 μM, 48 hours): -6.57% | TGI (MDA-MB-435; Melanoma MDA-MB-435): >100 µM | GI50 (SK-MEL-28; Homo sapiens, Melanoma SK-MEL-28): > 100 µM | CC50 (SK-MEL-28; Homo sapiens, Melanoma SK-MEL-28, read-out: LC50 (the source's name)): > 100 µM | TGI (SK-MEL-28; Melanoma SK-MEL-28): >100 µM | growth percentage (SK-MEL-28; SK-MEL-28 (Melanoma), 10 μM, 48 hours): -91.38% | GI50 (SK-MEL-5; Homo sapiens, Melanoma SK-MEL-5): 4.1 µM | CC50 (SK-MEL-5; Homo sapiens, Melanoma SK-MEL-5, read-out: LC50 (the source's name)): > 100 µM | TGI (SK-MEL-5; Melanoma SK-MEL-5): >100 µM | growth percentage (SK-MEL-5; SK-MEL-5 (Melanoma), 10 μM, 48 hours): 59.18% | GI50 (UACC-257; Homo sapiens, Melanoma UACC-257): 35.1 µM | CC50 (UACC-257; Homo sapiens, Melanoma UACC-257, read-out: LC50 (the source's name)): > 100 µM | TGI (UACC-257; Melanoma UACC-257): >100 µM | growth percentage (UACC-257; UACC-257 (Melanoma), 10 μM, 48 hours): -39.24% | GI50 (IGROV1; Homo sapiens, IGROV-1, Ovarian Cancer IGROV1): 5.94 µM | CC50 (IGROV1; Homo sapiens, IGROV-1, Ovarian Cancer IGROV1, read-out: LC50 (the source's name)): > 100 µM | growth percentage (IGROV1; IGROV1 (Ovarian Cancer), 10 μM, 48 hours): 3.23% | TGI (IGROV1; Ovarian Cancer IGROV1): >100 µM | GI50 (OVCAR-4; Homo sapiens, Ovarian Cancer OVCAR-4): 6.39 µM | CC50 (OVCAR-4; Homo sapiens, Ovarian Cancer OVCAR-4, read-out: LC50 (the source's name)): > 100 µM | growth percentage (OVCAR-4; OVCAR-4 (Ovarian Cancer), 10 μM, 48 hours): 35.59% | TGI (OVCAR-4; Ovarian Cancer OVCAR-4): >100 µM | GI50 (SK-OV-3; Homo sapiens, Ovarian Cancer SK-OV-3): 4.35 µM | CC50 (SK-OV-3; Homo sapiens, Ovarian Cancer SK-OV-3, read-out: LC50 (the source's name)): > 100 µM | TGI (SK-OV-3; Ovarian Cancer SK-OV-3): >100 µM | growth percentage (SK-OV-3; SK-OV-3 (Ovarian Cancer), 10 μM, 48 hours): 57.81% | growth percentage (786-0; 786-0 (Renal Cancer), 10 μM, 48 hours): 25.31% | GI50 (786-0; Homo sapiens, 786-0, Renal Cancer 786-O): 23.5 µM | CC50 (786-0; Homo sapiens, 786-0, Renal Cancer 786-O, read-out: LC50 (the source's name)): > 100 µM | TGI (786-0; Renal Cancer 786-O): >100 µM | growth percentage (ACHN; ACHN (Renal Cancer), 10 μM, 48 hours): -83.29% | GI50 (ACHN; Homo sapiens, Renal Cancer ACHN): 3.14 µM | CC50 (ACHN; Homo sapiens, Renal Cancer ACHN, read-out: LC50 (the source's name)): > 100 µM | TGI (ACHN; Renal Cancer ACHN): >100 µM | growth percentage (CAKI-1; CAKI-1 (Renal Cancer), 10 μM, 48 hours): 17.84% | GI50 (CAKI-1; Homo sapiens, Renal Cancer CAKI-1): 2.52 µM | CC50 (CAKI-1; Homo sapiens, Renal Cancer CAKI-1, read-out: LC50 (the source's name)): > 100 µM | TGI (CAKI-1; Renal Cancer CAKI-1): >100 µM | growth percentage (TK-10): 47.07% | growth percentage (DU-145; DU-145 (Prostate Cancer), 10 μM, 48 hours): -41.83% | GI50 (DU-145; Homo sapiens, Prostate Cancer DU-145): 4.79 µM | CC50 (DU-145; Homo sapiens, Prostate Cancer DU-145, read-out: LC50 (the source's name)): > 100 µM | TGI (DU-145; Prostate Cancer DU-145): >100 µM | TGI (MCF7; Breast Cancer MCF7): >100 µM | GI50 (MCF7; Homo sapiens, Breast Cancer MCF7): 5.42 µM | CC50 (MCF7; Homo sapiens, Breast Cancer MCF7, read-out: LC50 (the source's name)): > 100 µM | growth percentage (MCF7; MCF7 (Breast Cancer), 10 μM, 48 hours): -100.00% | TGI (MDA-MB-231/ATCC; Breast Cancer MDA-MB-231/ATCC): >100 µM | GI50 (MDA-MB-231/ATCC; [8]): 7.23 µM | LC50 (concentration giving 50% net cell kill) (MDA-MB-231/ATCC; [8]): > 100 µM | growth percentage (MDA-MB-231/ATCC; MDA-MB-231/ATCC (Breast Cancer), 10 μM, 48 hours): -10.45% | growth percentage (BT-549; BT-549 (Breast Cancer), 10 μM, 48 hours): 58.35% | TGI (BT-549; Breast Cancer BT-549): >100 µM | GI50 (BT-549; Homo sapiens, Breast Cancer BT-549): 10.6 µM | CC50 (BT-549; Homo sapiens, Breast Cancer BT-549, read-out: LC50 (the source's name)): > 100 µM
